For experiment [1], the system named is Septoria glycines. Nature of the experiment: Use Example M8: activity against Septoria glycines in the microtiter test (Septgl). Conditions: Septoria glycines, read-out: Observed effect. The experiment is classed as cell-based.
For experiment [2], the system named is Puccinia recondita. Nature of the experiment: Use Example G3: greenhouse, protective activity against Puccinia recondita on wheat (brown rust of wheat) (Puccrt P1). The experiment is classed as in vivo, Puccinia recondita on wheat seedlings. As for the experimental part:
The active compounds were prepared separately or jointly as a stock solution with 25 mg of active compound which was made up to 10 ml using a mixture of acetone and/or DMSO and the emulsifier Wettol EM 31 (wetting agent having emulsifying and dispersing action based on ethoxylated alkylphenols) in a volume ratio of solvent:emulsifier of 99:1. The mixture was then made up with water to 100 ml. This stock solution was diluted with the solvents/emulsifier/water mixture described to give the active compound concentrations stated below. Alternatively, the active compounds were used as commercial finished formulation and diluted with water to the stated active compound concentration. […]
The visually determined values for the percentage of infected leaf area were initially converted into a mean value and then converted into efficacies in % of the untreated control. […] The expected efficacies for the active compound combinations were determined using Colby's formula (Colby, S. R. “Calculating synergistic and antagonistic responses of herbicide combinations”, Weeds, 15, pp. 20-22, 1967) and compared to the observed efficacies.
Leaves of potted wheat seedlings were sprayed to run off point with an aqueous suspension having the active compound concentration stated below. […] The extent of rust fungus development on the leaves was then determined visually.

For experiment [3], the system named is Phytophthora infestans. As to the kind of experiment: microbe, parasite or virus in culture. The format is cell-based. Conditions: Phytophthora infestans, read-out: Observed effect, 16 ppm.
The subject of experiment [4] is Alternaria solani. The experiment is classed as in vivo, Alternaria solani on tomato plants. Conditions: 16 ppm.
The subject of experiment [5] is Phakopsora pachyrhizi. As to the kind of experiment: Use Example G4: greenhouse, curative activity against soybean rust caused by Phakopsora pachyrhizi (Phakpa K4). The experiment is classed as in vivo, Phakopsora pachyrhizi on soybean seedlings. As for the experimental part:
(§1) The active compounds were prepared separately or jointly as a stock solution with 25 mg of active compound which was made up to 10 ml using a mixture of acetone and/or DMSO and the emulsifier Wettol EM 31 (wetting agent having emulsifying and dispersing action based on ethoxylated alkylphenols) in a volume ratio of solvent:emulsifier of 99:1. The mixture was then made up with water to 100 ml. This stock solution was diluted with the solvents/emulsifier/water mixture described to give the active compound concentrations stated below. Alternatively, the active compounds were used as commercial finished formulation and diluted with water to the stated active compound concentration. The active compound orysastrobin was used as a commercially available formulation, and diluted with water with reference to the active compound.
(§2) The visually determined values for the percentage of infected leaf area were initially converted into a mean value and then converted into efficacies in % of the untreated control. An efficacy of 0 means the same degree of infection as in the untreated control, an efficacy of 100 means 0% infection. The expected efficacies for the active compound combinations were determined using Colby's formula (Colby, S. R. “Calculating synergistic and antagonistic responses of herbicide combinations”, Weeds, 15, pp. 20-22, 1967) and compared to the observed efficacies.
Leaves of potted soybean seedlings were inoculated with a spore suspension of soybean rust (Phakpsora pachyrhizi). The pots were then placed in a chamber of high atmospheric humidity (90 to 95%) and 20 to 24° C. for 24 hours. During this time, the spores germinated and the germ tubes penetrated into the leaf tissue. The infected plants were then cultivated further in a greenhouse at temperatures between 23 and 27° C. and 60 to 80% relative atmospheric humidity. After three days, the plants were sprayed to run off point with the active compound solution described above at the active compound concentration stated below. After the spray coating had dried on, the test plants were cultivated in a greenhouse at temperatures between 23 and 27° C. and 60 to 80% relative atmospheric humidity for a further 10 days. The extent of the rust fungus development on the leaves was then determined visually in %.

Experiment [6] relates to Septoria tritici. Nature of the experiment: Use Example G5: greenhouse, protective activity against Septoria leaf blotch of wheat caused by Septoria tritici (Septtr P1). The format is in vivo, Septoria tritici on wheat seedlings. As for the experimental part:
as §1, §2
Leaves of potted wheat seedlings were sprayed to run off point with an aqueous suspension having the active compound concentration stated below. 24 hours after the spray coating had dried on, they were inoculated with an aqueous spore suspension of Septoria tritici. The test plants were then placed in a greenhouse at temperatures between 18 and 22° C. and a relative atmospheric humidity close to 100% for four days and then at temperatures between 18 and 22° C. and an atmospheric humidity of about 70%. After 21 days, the extent of the development of the disease was determined visually in % infection of the total leaf area.

Experiment [7] relates to Botrytis cinerea. Nature of the experiment: Use Example G2: greenhouse, activity against grey mold on bell pepper leaves caused by Botrytis cinerea, 1 day protective application (Botrci P1). The experiment is classed as in vivo, Botrytis cinerea on bell pepper seedlings. Conditions: 250 ppm. As for the experimental part:
as §1, §2
Bell pepper seedlings were, after 2-3 leaves were well developed, sprayed to run off point with an aqueous suspension having the active compound concentrations stated below. The next day, the treated plants were inoculated with a spore suspension of Botrytis cinerea in a 2% biomalt solution. The test plants were then placed in a dark climatized chamber at 22 to 24° C. and high atmospheric humidity. After 5 days, the extent of the fungal infection on the leaves could be determined visually in %.

Regarding `O=C(Nc1ccccc1-c1ccc(Cl)cc1)c1cccnc1Cl` [II-24, boscalid], in experiment [1] (0.016 ppm), the inhibition of growth at 0.016 ppm was determined as 10%. The inhibition of growth at 0.04 ppm in experiment [1] (0.04 ppm) came out at 9%. For the same compound, the Observed effect in experiment [2] (1 ppm) is on record as 13%. Besides, the inhibition of growth at 16 ppm in experiment [3] came to 20%.
Take mancozeb [II-18]: the Observed effect in experiment [4] came out at 0%; in experiment [5] (16 ppm) it was 7%; in experiment [5] (63 ppm), 0%; in experiment [6] (16 ppm), 3%; in experiment [6] (63 ppm), 18%; in experiment [2] (4 ppm), 5%. For the same compound, in experiment [7], the Observed effect was found to be 15%.

The values are drawn from US20120088661A1, “FUNGICIDAL MIXTURES” (BASF SE, priority 2009, published 2012).
